Columns and labels:
[1] = molecular target: T1, Retinoic acid receptor alpha (Homo sapiens, UniProt P10276); format: functional, cell-based
T1 sequence (P10276 whole entry): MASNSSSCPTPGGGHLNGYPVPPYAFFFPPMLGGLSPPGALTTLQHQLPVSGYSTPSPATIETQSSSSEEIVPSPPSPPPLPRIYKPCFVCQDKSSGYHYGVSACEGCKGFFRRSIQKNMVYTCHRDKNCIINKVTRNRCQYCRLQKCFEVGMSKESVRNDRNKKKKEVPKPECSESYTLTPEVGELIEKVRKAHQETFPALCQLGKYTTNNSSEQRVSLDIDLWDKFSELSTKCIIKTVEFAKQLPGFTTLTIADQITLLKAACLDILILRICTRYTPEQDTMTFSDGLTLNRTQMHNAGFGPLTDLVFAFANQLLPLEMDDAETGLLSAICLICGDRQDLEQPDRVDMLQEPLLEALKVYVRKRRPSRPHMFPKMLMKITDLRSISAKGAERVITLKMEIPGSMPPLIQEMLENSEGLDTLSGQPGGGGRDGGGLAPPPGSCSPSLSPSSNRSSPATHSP

[2] = molecular target: T2, Oxysterols receptor LXR-alpha (Homo sapiens, UniProt Q13133); format: functional
T2 sequence (Q13133 whole entry): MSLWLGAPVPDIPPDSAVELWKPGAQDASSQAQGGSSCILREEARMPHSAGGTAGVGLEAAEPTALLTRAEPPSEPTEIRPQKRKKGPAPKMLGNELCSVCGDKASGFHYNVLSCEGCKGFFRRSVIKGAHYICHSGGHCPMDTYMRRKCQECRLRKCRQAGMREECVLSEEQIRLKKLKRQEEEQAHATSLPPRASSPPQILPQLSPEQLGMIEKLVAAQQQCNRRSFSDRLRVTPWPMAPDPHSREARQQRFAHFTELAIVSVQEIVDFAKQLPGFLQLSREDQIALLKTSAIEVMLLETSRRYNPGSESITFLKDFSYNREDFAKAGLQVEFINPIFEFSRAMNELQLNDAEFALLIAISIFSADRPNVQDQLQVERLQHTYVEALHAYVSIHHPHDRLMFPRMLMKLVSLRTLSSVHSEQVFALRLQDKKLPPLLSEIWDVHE

[3] = molecular target: T3, Estrogen receptor (Homo sapiens, UniProt P03372); format: functional
T3 sequence (P03372 whole entry): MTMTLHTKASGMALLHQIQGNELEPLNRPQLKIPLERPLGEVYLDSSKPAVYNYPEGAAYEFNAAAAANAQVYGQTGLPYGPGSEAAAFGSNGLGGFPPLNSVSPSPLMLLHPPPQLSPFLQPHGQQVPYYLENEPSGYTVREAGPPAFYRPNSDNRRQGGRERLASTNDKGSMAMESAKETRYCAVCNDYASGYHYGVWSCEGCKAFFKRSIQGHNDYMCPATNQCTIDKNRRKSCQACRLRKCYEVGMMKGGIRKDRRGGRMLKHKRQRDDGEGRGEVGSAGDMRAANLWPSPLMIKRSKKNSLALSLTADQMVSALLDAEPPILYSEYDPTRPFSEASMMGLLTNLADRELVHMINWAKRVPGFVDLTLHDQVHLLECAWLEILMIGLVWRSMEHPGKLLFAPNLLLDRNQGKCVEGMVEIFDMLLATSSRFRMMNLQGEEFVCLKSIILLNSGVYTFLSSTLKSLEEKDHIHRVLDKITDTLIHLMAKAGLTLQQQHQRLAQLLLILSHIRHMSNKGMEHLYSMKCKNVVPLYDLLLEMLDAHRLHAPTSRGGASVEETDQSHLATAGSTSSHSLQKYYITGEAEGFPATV

[4] = molecular target: T3, Estrogen receptor; format: functional; remark: listed apart in the source
[5] = molecular target: Type-2 angiotensin II receptor (Homo sapiens, UniProt P50052); format: functional
[6] = molecular target: Synaptic vesicular amine transporter (Rattus norvegicus, UniProt Q01827); format: functional
[7] = molecular target: D(3) dopamine receptor (Homo sapiens, UniProt P35462)
[8] = molecular target: T4, Alpha-2A adrenergic receptor (Homo sapiens, UniProt P08913)
T4 sequence (P08913 whole entry): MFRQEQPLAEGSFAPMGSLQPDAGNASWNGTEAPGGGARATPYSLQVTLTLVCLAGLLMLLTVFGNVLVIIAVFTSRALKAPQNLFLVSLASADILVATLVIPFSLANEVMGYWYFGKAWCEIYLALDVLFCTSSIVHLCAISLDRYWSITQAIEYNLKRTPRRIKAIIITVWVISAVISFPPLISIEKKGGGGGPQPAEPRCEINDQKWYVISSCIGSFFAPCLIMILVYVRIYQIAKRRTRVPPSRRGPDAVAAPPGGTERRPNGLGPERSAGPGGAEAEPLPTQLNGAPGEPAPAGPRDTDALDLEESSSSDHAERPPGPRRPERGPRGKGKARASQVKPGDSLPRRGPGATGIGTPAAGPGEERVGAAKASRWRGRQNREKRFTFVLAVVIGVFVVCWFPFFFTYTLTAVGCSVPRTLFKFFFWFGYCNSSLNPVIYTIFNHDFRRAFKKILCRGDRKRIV

[9] = molecular target: T5, Prostaglandin G/H synthase 1 (Homo sapiens, UniProt P23219); format: functional
[10] = molecular target: D(1A) dopamine receptor (Homo sapiens, UniProt P21728)
[11] = molecular target: T6, Thromboxane A2 receptor (Homo sapiens, UniProt P21731); format: functional, cell-based
T6 sequence (P21731 whole entry): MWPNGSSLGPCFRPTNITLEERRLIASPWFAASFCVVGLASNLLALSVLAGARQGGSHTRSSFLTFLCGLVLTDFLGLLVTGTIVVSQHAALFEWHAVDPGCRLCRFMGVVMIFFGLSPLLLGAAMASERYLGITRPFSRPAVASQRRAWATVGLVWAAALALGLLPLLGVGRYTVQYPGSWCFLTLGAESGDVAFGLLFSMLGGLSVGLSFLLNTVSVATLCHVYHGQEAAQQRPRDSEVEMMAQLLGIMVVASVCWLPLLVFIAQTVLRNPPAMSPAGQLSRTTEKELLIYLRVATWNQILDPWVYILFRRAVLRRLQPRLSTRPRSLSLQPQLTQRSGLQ

[12] = molecular target: T5, Prostaglandin G/H synthase 1; format: functional; remark: listed apart in the source
Note: assay procedure not described here.

T5 sequence (P23219 whole entry): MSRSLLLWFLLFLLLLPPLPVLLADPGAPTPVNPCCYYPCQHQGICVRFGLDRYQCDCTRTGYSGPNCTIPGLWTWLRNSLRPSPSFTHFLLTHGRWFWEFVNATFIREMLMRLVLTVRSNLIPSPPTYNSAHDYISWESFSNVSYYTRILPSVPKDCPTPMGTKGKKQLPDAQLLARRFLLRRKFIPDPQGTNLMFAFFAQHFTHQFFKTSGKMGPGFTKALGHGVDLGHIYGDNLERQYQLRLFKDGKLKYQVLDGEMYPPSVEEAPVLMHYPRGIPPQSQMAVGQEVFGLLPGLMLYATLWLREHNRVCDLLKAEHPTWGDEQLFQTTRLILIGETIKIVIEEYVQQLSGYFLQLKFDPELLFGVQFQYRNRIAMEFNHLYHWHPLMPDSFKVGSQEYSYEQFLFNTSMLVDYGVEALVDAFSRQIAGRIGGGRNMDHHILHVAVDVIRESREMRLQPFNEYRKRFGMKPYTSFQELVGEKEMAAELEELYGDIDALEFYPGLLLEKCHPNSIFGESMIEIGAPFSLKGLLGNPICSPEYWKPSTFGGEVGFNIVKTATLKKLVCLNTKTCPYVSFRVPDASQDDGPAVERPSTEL
Sequence of D(3) dopamine receptor (P35462 whole entry): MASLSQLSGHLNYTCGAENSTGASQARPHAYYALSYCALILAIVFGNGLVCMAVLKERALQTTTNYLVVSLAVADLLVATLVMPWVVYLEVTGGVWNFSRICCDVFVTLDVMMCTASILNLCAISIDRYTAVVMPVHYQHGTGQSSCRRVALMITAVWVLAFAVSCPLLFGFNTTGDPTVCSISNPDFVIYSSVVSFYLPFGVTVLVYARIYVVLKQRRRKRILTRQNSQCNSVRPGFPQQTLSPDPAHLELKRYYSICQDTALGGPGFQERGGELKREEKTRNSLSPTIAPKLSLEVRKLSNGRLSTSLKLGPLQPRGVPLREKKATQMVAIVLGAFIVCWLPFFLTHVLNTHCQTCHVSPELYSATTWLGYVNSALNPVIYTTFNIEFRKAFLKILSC
Sequence of D(1A) dopamine receptor (P21728 whole entry): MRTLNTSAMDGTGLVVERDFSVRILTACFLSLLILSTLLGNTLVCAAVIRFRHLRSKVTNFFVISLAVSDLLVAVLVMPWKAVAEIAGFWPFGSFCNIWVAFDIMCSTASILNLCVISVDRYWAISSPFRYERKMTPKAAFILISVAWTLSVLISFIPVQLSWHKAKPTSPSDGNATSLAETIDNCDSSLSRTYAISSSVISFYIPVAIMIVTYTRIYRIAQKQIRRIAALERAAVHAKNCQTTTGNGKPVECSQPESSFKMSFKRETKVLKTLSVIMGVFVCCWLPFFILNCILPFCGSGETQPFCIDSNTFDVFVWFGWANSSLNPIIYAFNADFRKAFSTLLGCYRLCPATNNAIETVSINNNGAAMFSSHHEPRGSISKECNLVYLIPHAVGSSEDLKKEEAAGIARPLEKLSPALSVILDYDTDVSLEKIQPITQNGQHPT
Sequence of Synaptic vesicular amine transporter (Q01827 whole entry): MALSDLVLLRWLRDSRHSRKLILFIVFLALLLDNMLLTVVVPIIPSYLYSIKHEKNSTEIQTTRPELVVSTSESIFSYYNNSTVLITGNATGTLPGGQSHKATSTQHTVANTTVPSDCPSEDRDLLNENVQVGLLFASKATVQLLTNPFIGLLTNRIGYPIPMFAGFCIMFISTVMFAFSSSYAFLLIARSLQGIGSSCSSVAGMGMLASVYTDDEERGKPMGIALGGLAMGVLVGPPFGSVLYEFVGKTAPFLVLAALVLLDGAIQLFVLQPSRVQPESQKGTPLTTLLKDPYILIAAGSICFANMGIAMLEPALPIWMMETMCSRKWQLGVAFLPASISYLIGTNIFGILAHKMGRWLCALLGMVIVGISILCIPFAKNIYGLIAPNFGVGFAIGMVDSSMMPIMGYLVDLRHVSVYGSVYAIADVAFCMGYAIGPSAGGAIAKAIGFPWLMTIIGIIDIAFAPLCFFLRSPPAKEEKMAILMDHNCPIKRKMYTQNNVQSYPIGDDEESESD
Sequence of Type-2 angiotensin II receptor (P50052 whole entry): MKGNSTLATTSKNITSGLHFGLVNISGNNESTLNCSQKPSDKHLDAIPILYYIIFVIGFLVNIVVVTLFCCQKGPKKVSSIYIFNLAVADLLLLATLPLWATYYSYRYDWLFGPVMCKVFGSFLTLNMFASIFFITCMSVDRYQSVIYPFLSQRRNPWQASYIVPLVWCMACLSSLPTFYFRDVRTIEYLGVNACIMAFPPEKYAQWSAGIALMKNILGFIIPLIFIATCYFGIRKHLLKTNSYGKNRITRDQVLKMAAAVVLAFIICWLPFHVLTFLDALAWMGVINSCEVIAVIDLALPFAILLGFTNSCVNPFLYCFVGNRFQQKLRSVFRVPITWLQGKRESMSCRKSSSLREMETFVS

Compound	AC50 [7] [µM]	AC50 [8] [µM]	AC50 [9] [µM]	AC50 [10] [µM]	AC50 [11] [µM]	AC50 [12] [µM]	also measured
CC(C)c1c(C(=O)Nc2ccccc2)c(-c2ccccc2)c(-c2ccc(F)cc2)n1CC[C@@H](O)C[C@@H](O)CC(=O)O [ATORVASTATIN]							AC50 [1]: > 30 µM; AC50 [2]: > 30 µM
[H]/N=C(/N)c1ccc(NCc2nc3cc(C(=O)N(CCC(=O)O)c4ccccn4)ccc3n2C)cc1 [DABIGATRAN]							AC50 [3]: > 30 µM; AC50 [4]: > 30 µM
Cc1c(O)c(=O)ccn1C [DEFERIPRONE]							AC50 [5]: > 100 µM
CCNC(C)Cc1cccc(C(F)(F)F)c1 (stereo not drawn) [FENFLURAMINE]							AC50 [6]: 3.71 µM
Nc1nc2ccc(OC(F)(F)F)cc2s1 [RILUZOLE]	> 30	> 30	> 30	> 30	> 30	> 30	
BIVALIRUDIN	> 30	> 30	> 30	> 30	> 30	> 30	

Source: ChEMBL document CHEMBL5291721, “A preclinical secondary pharmacology resource illuminates target-adverse drug reaction associations of marketed drugs” (Nat Commun, 2023)
